Measured values taken from patent US4545932A, “Glucosaminyl muramyl peptide derivatives” (Dainippon Pharmaceutical Co., Ltd., priority 1982, dated 1985).

Tests used:
Assay type in all cases: in vivo
Pyrogenicity in rabbits = conditions: for Pyrogenicity in rabbits: injected into ear vein, three rabbits per group
Method: Rabbits (each group: three rabbits) were used. Test compounds dissolved in a physiological saline solution were each injected into ear vein of rabbits. The difference between maximum body temperature within three hours after the injection of test compound and the body temperature before the injection was regarded as rise in body temperature. The degree of pyrogenicity was evaluated according to the following criterion: […]

various microorganisms = assay: Antiinfectious effect in mice; conditions: similar experiments; no data given
Source text: (§1) Std-ddY male mice weighing about 23 g (each group: 8 mice) were used. Test compounds dissolved in a physiological saline solution were each intravenously administered to mice once a day 1, 2 and 3 days before the infection. Twenty-four hours after the final administration of test compounds, the mice were infected with various microorganisms suspended in saline (in case of Staphylococcus aureus and Candida albicans) or in Trypto-Soy Broth (manufactured by Eiken Chemical Co., Ltd., Japan) (in case of Pseudomonas aeruginosa and Escherichia coli) under the conditions as shown in Table 1. When the experiment was repeated twice or more, the data were pooled.
Besides, as to the compounds of Examples 8, 18, 36, 37 and 45 (derivatives of GMP3 -A), similar experiments were done.

[1] = tested on: Staphylococcus aureus No. 50774; assay: Prophylactic effect on experimental infection, Staphylococcus aureus; conditions: Std-ddY male mice, 14 days after infection
Source text: as §1
(§2) ^a Test compounds were intravenously administered once a day 1, 2 and
(§3) 3 days before infection.
(§4) ^b Figures represent (number of survivals)/(number of animals tested)
(§5) and figures in parenthesis represent percent survival.

[2] = tested on: Pseudomonas aeruginosa No. 12; assay: Prophylactic effect on experimental infection, Pseudomonas aeruginosa; conditions: Std-ddY male mice, 7 days after infection
Source text: as §1, §2, §3, §4, §5

Escherichia coli P-5101 = assay: Prophylactic effect on experimental infection, Escherichia coli; conditions: Std-ddY male mice, 7 days after infection
Source text: as §1, §2, §3, §4, §5

Candida albicans 3170 = assay: Prophylactic effect on experimental infection, Candida albicans; conditions: Std-ddY male mice, 7 days after infection
Source text: as §1
3170 fungal sus- infection
as §2, §3, §4, §5

[3] = similar experiments, no data given
[4] = Dose 0.05 mg/kg i.v. once a day 1, 2 and 3 days before infection
[5] = Dose 0.125 mg/kg i.v. once a day 1, 2 and 3 days before infection
[6] = Dose 0.2 mg/kg i.v. once a day 1, 2 and 3 days before infection
[7] = Dose 0.8 mg/kg i.v. once a day 1, 2 and 3 days before infection
[8] = Dose 3.1 mg/kg i.v. once a day 1, 2 and 3 days before infection
[9] = Dose 12.5 mg/kg i.v. once a day 1, 2 and 3 days before infection
[10] = Dose 0.0125 mg/kg i.v. once a day 1, 2 and 3 days before infection
[11] = Dose 50 mg/kg i.v. once a day 1, 2 and 3 days before infection

CCCCCCCCC=CCCCCCCCC(=O)NC(CCCC(NC(=O)CCC(NC(=O)C(C)NC(=O)C(C)OC1C(NC(C)=O)C(O)OC(CO)C1OC1OC(CO)C(O)C(O)C1NC(C)=O)C(N)=O)C(=O)[O-])C(N)=O.[Na+] (stereo not shown) [Example 8]
pyrogenicity compared with GMP3 -A (Pyrogenicity in rabbits; [3]): less pyrogenicity than GMP3 -A | antiinfectious effect compared with GMP3 -A (various microorganisms): more potent antiinfectious effect

CCCCCCCCCCCCCCCCCC(=O)NC(CCCC(NC(=O)CCC(NC(=O)C(C)NC(=O)C(C)OC1C(NC(C)=O)C(O)OC(CO)C1OC1OC(CO)C(O)C(O)C1NC(C)=O)C(N)=O)C(=O)[O-])C(N)=O.[Na+] (stereo not shown) [Example 18]
pyrogenicity compared with GMP3 -A (Pyrogenicity in rabbits; [3]): less pyrogenicity than GMP3 -A | antiinfectious effect compared with GMP3 -A (various microorganisms): more potent antiinfectious effect

CC(=O)NC(CCCC(NC(=O)CCC(NC(=O)C(C)NC(=O)C(C)OC1C(NC(C)=O)C(O)OC(CO)C1OC1OC(CO)C(O)C(O)C1NC(C)=O)C(N)=O)C(N)=O)C(N)=O [Example 36, β-N-acetylglucosaminyl-(1→4)-N-acetylmuramyl-L-alanyl-D-isoglutaminyl-(L)-acetyl-(D)-meso-2,6-diaminopimelic acid-(D),(L)-diamide]
pyrogenicity compared with GMP3 -A (Pyrogenicity in rabbits; rabbit, in vivo): by far the less than that of GMP3 -A

CCCCCCCCCCNC(=O)C(CCCC(NC(C)=O)C(N)=O)NC(=O)CCC(NC(=O)C(C)NC(=O)C(C)OC1C(NC(C)=O)C(O)OC(CO)C1OC1OC(CO)C(O)C(O)C1NC(C)=O)C(N)=O (stereo not shown) [Example 37]
pyrogenicity compared with GMP3 -A (Pyrogenicity in rabbits; rabbit, in vivo): by far the less than that of GMP3 -A

CCCCCCCCCCCCCCCCCCNC(=O)C(CCCC(N)C(N)=O)NC(=O)CCC(NC(=O)C(C)NC(=O)C(C)OC1C(NC(C)=O)C(O)OC(CO)C1OC1OC(CO)C(O)C(O)C1NC(C)=O)C(N)=O.Cl [Example 45, β-N-acetylglucosaminyl-(1→4)-N-acetylmuramyl-L-alanyl-D-isoglutaminyl-(L)-meso-2,6-diaminopimelic acid-(D)-amide-(L)-octadecylamide hydrochloride]
pyrogenicity compared with GMP3 -A (Pyrogenicity in rabbits; rabbit, in vivo): by far the less than that of GMP3 -A

CC(=O)NC1C(OC2C(CO)OC(O)C(NC(C)=O)C2OC(C)C(=O)NC(C)C(=O)NC(CCC(=O)NC(CCCC(N)C(N)=O)C(=O)NC(C)C(=O)O)C(N)=O)OC(CO)C(O)C1O [GMP4 -A, β-N-acetylglucosaminyl-(1→4)-N-acetylmuramyl-L-alanyl-D-isoglutaminyl-(L)-meso-2,6-diaminopimelic acid-(D)-amide-(L)-D-alanine, reference compound]
(number of survivals)/(number of animals tested) [1, 4]: 3/24 | percent survival [1, 4]: 12.5% | (number of survivals)/(number of animals tested) [1, 5]: 0/8 | percent survival [1, 5]: 0% | (number of survivals)/(number of animals tested) [1, 6]: 6/16 | percent survival [1, 6]: 37.5% | (number of survivals)/(number of animals tested) [1, 7]: 11/32 | percent survival [1, 7]: 34.4% | (number of survivals)/(number of animals tested) [1, 8]: 11/32 | percent survival [1, 8]: 34.4% | (number of survivals)/(number of animals tested) [1, 9]: 23/32 | percent survival [1, 9]: 71.9% | (number of survivals)/(number of animals tested) [2, 10]: 12/40 | percent survival [2, 10]: 30% | (number of survivals)/(number of animals tested) [2, 4]: 16/48 | percent survival [2, 4]: 33.3% | (number of survivals)/(number of animals tested) [2, 6]: 23/56 | percent survival [2, 6]: 41.1% | (number of survivals)/(number of animals tested) [2, 7]: 31/72 | percent survival [2, 7]: 43.1% | (number of survivals)/(number of animals tested) [2, 8]: 27/64 | percent survival [2, 8]: 42.2% | (number of survivals)/(number of animals tested) [2, 9]: 32/48 | percent survival [2, 9]: 66.7% | (number of survivals)/(number of animals tested) (Escherichia coli P-5101; [6]): 0/8 | percent survival (Escherichia coli P-5101; [6]): 0% | (number of survivals)/(number of animals tested) (Escherichia coli P-5101; [7]): 0/8 | percent survival (Escherichia coli P-5101; [7]): 0% | (number of survivals)/(number of animals tested) (Escherichia coli P-5101; [8]): 5/24 | percent survival (Escherichia coli P-5101; [8]): 20.8% | (number of survivals)/(number of animals tested) (Escherichia coli P-5101; [9]): 10/24 | percent survival (Escherichia coli P-5101; [9]): 41.7% | (number of survivals)/(number of animals tested) (Escherichia coli P-5101; [11]): 10/16 | percent survival (Escherichia coli P-5101; [11]): 62.5% | (number of survivals)/(number of animals tested) (Candida albicans 3170; [8]): 2/8 | percent survival (Candida albicans 3170; [8]): 25% | (number of survivals)/(number of animals tested) (Candida albicans 3170; [9]): 4/8 | percent survival (Candida albicans 3170; [9]): 50% | (number of survivals)/(number of animals tested) (Candida albicans 3170; [11]): 6/8 | percent survival (Candida albicans 3170; [11]): 75% | Pyrogenicity in rabbits (Pyrogenicity in rabbits; Dose 0.1 mg/rabbit): - (one animal showed rise in body temperature of 0.6 °C or more) | Pyrogenicity in rabbits (Pyrogenicity in rabbits; Dose 0.3 mg/rabbit): + (two or more animals showed rise in body temperature of 0.6 °C or more) | Pyrogenicity in rabbits (Pyrogenicity in rabbits; Dose 1 mg/rabbit): + (two or more animals showed rise in body temperature of 0.6 °C or more) | Pyrogenicity in rabbits (Pyrogenicity in rabbits; Dose 3 mg/rabbit): + (two or more animals showed rise in body temperature of 0.6 °C or more) | Pyrogenicity in rabbits (Pyrogenicity in rabbits; Dose 10 mg/rabbit): + (two or more animals showed rise in body temperature of 0.6 °C or more)
